Assay results: patent publication US20210308144A1 (priority 2021, published 2021)
Read-outs that look alike come from different tables or passages of the source.

Assays:
[1] = system: BJ (human fibriblast) cell line; assay: Cytotoxicity against BJ (human fibroblast) cell line
[2] = target: T1, human aromatase enzyme (human placental microsomes) (Homo sapiens, UniProt P11511); assay: Human placental aromatase inhibition assay; format: biochemical
T1 construct: evaluated against human placental microsomes (aromatase enzyme); from tissue; host or cells: human placenta (microsomes)
T1 sequence (P11511 1-503): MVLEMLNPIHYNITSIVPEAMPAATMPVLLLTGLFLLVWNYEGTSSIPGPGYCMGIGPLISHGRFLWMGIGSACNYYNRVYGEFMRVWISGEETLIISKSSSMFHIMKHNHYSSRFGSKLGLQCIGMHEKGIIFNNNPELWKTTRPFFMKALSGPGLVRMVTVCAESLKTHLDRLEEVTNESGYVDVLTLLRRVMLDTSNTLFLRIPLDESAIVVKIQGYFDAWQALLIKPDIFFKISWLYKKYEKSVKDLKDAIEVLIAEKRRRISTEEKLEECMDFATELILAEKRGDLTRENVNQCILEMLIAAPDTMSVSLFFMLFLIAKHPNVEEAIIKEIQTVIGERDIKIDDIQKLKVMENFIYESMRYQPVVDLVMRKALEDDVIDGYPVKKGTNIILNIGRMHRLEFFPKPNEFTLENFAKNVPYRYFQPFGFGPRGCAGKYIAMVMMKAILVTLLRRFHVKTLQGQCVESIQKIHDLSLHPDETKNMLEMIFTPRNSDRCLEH

[3] = human placental microsomes, testosterone to 17β-estradiol conversion, UPLC, read-out: IC50 against human aromatase

For `CC1=CC(=O)C=C2CC[C@@H]3[C@H](CC[C@]4(C)C(=O)CC[C@@]34O)[C@@]12C` [Compound 2, 14α-hydroxy-1-methylandrosta-1,4-diene-3,17-dione], the “cytotoxicity against BJ cell line” value [1] was “non-cytotoxic” and the IC50 [2, 3] was 9.7 ± 0.72 nM.
With `CC1=CC(=O)C=C2CC[C@@H]3[C@H](CC[C@]4(C)C(=O)CC[C@@H]34)[C@@]12C` [Compound 1, atamestane, reference compound] the IC50 [2, 3] was 13.8 ± 0.2 nM.
With `CCCCCCC(=O)O[C@H]1CC[C@H]2[C@@H]3CC[C@H]4CC(=O)[C@H](C)C[C@]4(C)[C@H]3CC[C@]12C` [Compound 3, drostanolone enanthate, reference compound] the IC50 [2, 3] was 6.4 ± 0.06 nM.
In the case of `C=C1C[C@@H]2[C@H]([C@H](O)C[C@]3(C)[C@@H](O)CC[C@@H]23)[C@@]2(C)C=CC(=O)C=C12` [Compound 8, 11α,17β-dihydroxy-6-methylene-androsta-1,4-diene-3-one], the “cytotoxicity against BJ cell line” value [1] is reported as “non-cytotoxic” and the IC50 [2] is reported as 12800 ± 844 nM.
In the case of `C[C@@H]1C[C@@]2(C)[C@@H](CC[C@H]3[C@@H]4CC[C@H](O)[C@@]4(C)CC[C@@]32O)CC1=O` [Compound 5, 2α-methyl-9α,17β-dihydroxy-5α-androstan-3-one], the “cytotoxicity against BJ cell line” value [1] is reported as “non-cytotoxic” and the IC50 [2, 3] is reported as 793 ± 29.9 nM.
With `CC1=C[C@@]2(C)C(=CC1=O)CC[C@H]1[C@@H]3CC[C@H](O)[C@@]3(C)[C@H](O)C[C@@H]12` [Compound 4, 2-methylandrosta-12β,17β-dihydroxy-1,4-diene-3-one] the “cytotoxicity against BJ cell line” value [1] was “non-cytotoxic” and the IC50 [2, 3] was 4.23 ± 0.133 nM.
